# Data taken from PubChem BioAssay AID328 (DTP/NCI, 2004).
# Several values for one entry are separate records, joined by “and”; a condition that tells them apart may be missing. Identical values can stand only once. Inconclusive results and toxic doses are left out.
# Test system: BDF1 mice, P388 leukemia ip, median survival T/C
# Experiment: NCI In Vivo Anticancer Drug Screen. Data for tumor model P388 Leukemia (intraperitoneal) in B6D2F1 (BDF1) mice
# Settings: endpoint: median survival time, higher = longer survival
# Procedure, shortened: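 Mice carrying the transplantable tumour receive compound or vehicle. Survival is followed in each arm, and the treated measure is divided by the vehicle measure.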
# [1] = dose: 50.0 mg/kg/injection, schedule: Q04DX003 (ip), vehicle: saline
# [2] = dose: 12.5 mg/kg/injection, schedule: Q04DX003 (ip), vehicle: saline with Tween-80
# [3] = dose: 25.0 mg/kg/injection, schedule: Q01DX009 (ip), vehicle: saline with Tween-80
# [4] = dose: 25.0 mg/kg/injection, schedule: Q04DX003 (ip), vehicle: saline with Tween-80
# [5] = dose: 50.0 mg/kg/injection, schedule: Q01DX009 (ip), vehicle: saline with Tween-80
# [6] = dose: 66.0 mg/kg/injection, schedule: Q04DX003 (ip), vehicle: saline with Tween-80
# [7] = dose: 100.0 mg/kg/injection, schedule: Q01DX009 (ip), vehicle: saline with Tween-80
# [8] = dose: 100.0 mg/kg/injection, schedule: Q04DX003 (ip), vehicle: saline with Tween-80
# [9] = dose: 100.0 mg/kg/injection, schedule: Q01DX009 (ip), vehicle: Klucel (hydroxypropylcellulose) (HPC)
# [10] = dose: 200.0 mg/kg/injection, schedule: Q01DX009 (ip), vehicle: saline with Tween-80
structure (smiles),measurement,setting,value
CC(=O)NC1=C(N2CC2C)C(=O)C(NC(C)=O)=C(N2CC2C)C1=O (stereo not given),T/C,"dose: 0.62 mg/kg/injection, schedule: Q01DX009 (ip), vehicle: saline",119 % of control
same,T/C,"dose: 1.25 mg/kg/injection, schedule: Q01DX009 (ip), vehicle: saline",114 % of control and 115 % of control
same,T/C,"dose: 4.4 mg/kg/injection, schedule: Q04DX003 (ip), vehicle: saline",118 % of control
same,T/C,"dose: 5.0 mg/kg/injection, schedule: Q01DX009 (ip), vehicle: saline",233 % of control and 215 % of control
same,T/C,"dose: 5.56 mg/kg/injection, schedule: Q01DX009 (ip), vehicle: saline",159 % of control
same,T/C,"dose: 6.6 mg/kg/injection, schedule: Q04DX003 (ip), vehicle: saline",104 % of control
same,T/C,"dose: 8.33 mg/kg/injection, schedule: Q01DX009 (ip), vehicle: saline",236 % of control
same,T/C,"dose: 11.0 mg/kg/injection, schedule: Q04DX003 (ip), vehicle: saline",166 % of control and 215 % of control
same,T/C,"dose: 12.5 mg/kg/injection, schedule: Q01DX009 (ip), vehicle: saline",163 % of control
same,T/C,"dose: 15.0 mg/kg/injection, schedule: Q04DX003 (ip), vehicle: saline",163 % of control
same,T/C,"dose: 16.5 mg/kg/injection, schedule: Q04DX003 (ip), vehicle: saline",230 % of control and 222 % of control
same,T/C,"dose: 18.7 mg/kg/injection, schedule: Q01DX009 (ip), vehicle: saline",90 % of control
same,T/C,"dose: 25.0 mg/kg/injection, schedule: Q04DX003 (ip), vehicle: saline",255 % of control and 110 % of control
same,T/C,"dose: 37.5 mg/kg/injection, schedule: Q04DX003 (ip), vehicle: saline",183 % of control
same,T/C,[1],86 % of control and 100 % of control
CNC(=N)c1ccc(NC(=N)c2ccc(NC(=N)c3ccc(NC(=O)Nc4ccc(C(=N)Nc5ccc(C(=N)Nc6ccc(C(=N)NC)cc6)cc5)cc4)cc3)cc2)cc1,T/C,[2],150 % of control
same,T/C,"dose: 19.0 mg/kg/injection, schedule: Q04DX003 (ip), vehicle: saline with Tween-80",162 % of control and 186 % of control
same,T/C,[3],165 % of control and 180 % of control
same,T/C,[4],163 % of control
same,T/C,"dose: 29.0 mg/kg/injection, schedule: Q04DX003 (ip), vehicle: saline with Tween-80",272 % of control and 172 % of control
same,T/C,"dose: 44.0 mg/kg/injection, schedule: Q04DX003 (ip), vehicle: saline with Tween-80",231 % of control and 195 % of control
same,T/C,[5],230 % of control
same,T/C,[6],200 % of control
same,T/C,"dose: 67.0 mg/kg/injection, schedule: Q04DX003 (ip), vehicle: saline with Tween-80",229 % of control and 195 % of control
same,T/C,[7],92 % of control
same,T/C,[8],250 % of control and 222 % of control
CCC(=O)NC1=C(N2CC2)C(=O)C(NC(=O)CC)=C(N2CC2)C1=O,T/C,"dose: 1.0 mg/kg/injection, schedule: Q01DX009 (ip), vehicle: saline",171 % of control and 185 % of control
same,T/C,"dose: 2.0 mg/kg/injection, schedule: Q01DX009 (ip), vehicle: saline",225 % of control and 228 % of control
same,T/C,"dose: 4.0 mg/kg/injection, schedule: Q01DX009 (ip), vehicle: saline",90 % of control and 119 % of control
O=C1OC(=O)c2c1ccc(Br)c2Br,T/C,[9],100 % of control
same,T/C,"dose: 200.0 mg/kg/injection, schedule: Q01DX009 (ip), vehicle: Klucel (hydroxypropylcellulose) (HPC)",90 % of control
same,T/C,"dose: 400.0 mg/kg/injection, schedule: Q01DX009 (ip), vehicle: Klucel (hydroxypropylcellulose) (HPC)",90 % of control
NC1CC2(CCC1=O)c1ccccc1-c1ccccc12 (stereo not given),T/C,"dose: 25.0 mg/kg/injection, schedule: Q01DX001 (ip), vehicle: saline with Tween-80",96 % of control
same,T/C,"dose: 50.0 mg/kg/injection, schedule: Q01DX001 (ip), vehicle: saline with Tween-80",94 % of control
same,T/C,"dose: 100.0 mg/kg/injection, schedule: Q01DX001 (ip), vehicle: saline with Tween-80",97 % of control
C=C1C(=O)O[C@@H]2C[C@@H](C)[C@@H]3[C@@H](OC4OC(COC(C)=O)C(O)C(O)C4O)CC(=O)[C@@]3(C)C[C@H]12 (stereo not given in full),T/C,"dose: 2.8 mg/kg/injection, schedule: Q01DX009 (ip), vehicle: saline",100 % of control
same,T/C,"dose: 4.2 mg/kg/injection, schedule: Q01DX009 (ip), vehicle: saline",122 % of control
same,T/C,"dose: 50.0 mg/kg/injection, schedule: Q01DX009 (ip), vehicle: saline",100 % of control
same,T/C,"dose: 75.0 mg/kg/injection, schedule: Q01DX009 (ip), vehicle: saline",105 % of control
C[n+]1ccc(NC(=O)c2ccc(NC(=O)c3cccc(C(=O)Nc4ccc(C(=O)Nc5cc[n+](C)cc5)cc4)c3)cc2)cc1,T/C,[6],160 % of control
same,T/C,[8],239 % of control
O=C(O)COc1ccc(-c2ccc(Br)cc2)cc1,T/C,[5],90 % of control
same,T/C,[10],100 % of control
same,T/C,"dose: 400.0 mg/kg/injection, schedule: Q01DX009 (ip), vehicle: saline with Tween-80",101 % of control
COc1cc(NS(C)(=O)=O)ccc1Nc1c2cccc(C)c2nc2c(C)cccc12,T/C,"dose: 1.57 mg/kg/injection, schedule: Q01DX009 (ip), vehicle: saline",176 % of control
same,T/C,"dose: 3.13 mg/kg/injection, schedule: Q01DX009 (ip), vehicle: saline with Tween-80",150 % of control
same,T/C,"dose: 3.13 mg/kg/injection, schedule: Q01DX009 (ip), vehicle: saline",201 % of control
same,T/C,"dose: 6.25 mg/kg/injection, schedule: Q01DX009 (ip), vehicle: saline with Tween-80",169 % of control
same,T/C,"dose: 12.5 mg/kg/injection, schedule: Q01DX009 (ip), vehicle: saline with Tween-80",186 % of control
same,T/C,"dose: 14.6 mg/kg/injection, schedule: Q04DX003 (ip), vehicle: saline",163 % of control
same,T/C,"dose: 22.0 mg/kg/injection, schedule: Q04DX003 (ip), vehicle: saline",163 % of control
same,T/C,[3],231 % of control
same,T/C,"dose: 33.0 mg/kg/injection, schedule: Q04DX003 (ip), vehicle: saline",159 % of control
same,T/C,[1],227 % of control
same,T/C,[8],272 % of control
same,T/C,"dose: 200.0 mg/kg/injection, schedule: Q04DX003 (ip), vehicle: saline with Tween-80",109 % of control
CC(C)(C)CSc1ccccc1SCC(C)(C)C,T/C,"dose: 50.0 mg/kg/injection, schedule: Q04DX002 (ip), vehicle: saline with Tween-80",107 % of control
same,T/C,"dose: 100.0 mg/kg/injection, schedule: Q04DX002 (ip), vehicle: saline with Tween-80",98 % of control
same,T/C,"dose: 200.0 mg/kg/injection, schedule: Q04DX002 (ip), vehicle: saline with Tween-80",93 % of control
COC(=O)C(Br)c1cccc(OC)c1 (stereo not given),T/C,"dose: 58.5 mg/kg/injection, schedule: Q01DX009 (ip), vehicle: saline with Tween-80",100 % of control
same,T/C,"dose: 88.0 mg/kg/injection, schedule: Q01DX009 (ip), vehicle: saline with Tween-80",100 % of control
same,T/C,"dose: 132.0 mg/kg/injection, schedule: Q01DX009 (ip), vehicle: saline with Tween-80",90 % of control
same,T/C,[10],100 % of control and 120 % of control
CCc1nnc2n1N=C(c1ccc(-c3ccccc3)cc1)CS2,T/C,[5],90 % of control
same,T/C,[7],89 % of control
same,T/C,[10],90 % of control
S=C(NNc1ccccc1)Nc1ccccc1,T/C,"dose: 25.0 mg/kg/injection, schedule: Q01DX009 (ip), vehicle: Klucel (hydroxypropylcellulose) (HPC)",106 % of control
same,T/C,"dose: 50.0 mg/kg/injection, schedule: Q01DX009 (ip), vehicle: Klucel (hydroxypropylcellulose) (HPC)",101 % of control
same,T/C,[9],96 % of control
S=C1SCN(Cc2ccccc2)CN1Cc1ccccc1,T/C,"dose: 100.0 mg/kg/injection, schedule: Q01DX001 (ip), vehicle: Klucel (hydroxypropylcellulose) (HPC)",113 % of control
same,T/C,"dose: 200.0 mg/kg/injection, schedule: Q01DX001 (ip), vehicle: Klucel (hydroxypropylcellulose) (HPC)",100 % of control
same,T/C,"dose: 400.0 mg/kg/injection, schedule: Q01DX001 (ip), vehicle: Klucel (hydroxypropylcellulose) (HPC)",100 % of control
CCCCN(CCCC)CC(O)c1ccc2cc(Cl)cc(Cl)c2n1 (stereo not given),T/C,"dose: 6.25 mg/kg/injection, schedule: Q04DX003 (ip), vehicle: saline with Tween-80",110 % of control
same,T/C,[2],115 % of control
same,T/C,[4],110 % of control
